Experimental data as given in ChEMBL document CHEMBL1155903, “Cytotoxic calanquinone A from Calanthe arisanensis and its first total synthesis” (Bioorg Med Chem Lett, 2008).
≈ marks a conversion by molar mass, not a printed value. Calls of active or inactive are those of the source. The calls are words filed in the database; no cut-off is given here.

Legend:
Assay type in all cases: functional, cell-based
[1] = test system: A549; assay: Cytotoxicity against human A549 cells
[2] = test system: PC-3; assay: Cytotoxicity against human PC3 cells
[3] = test system: DU-145; assay: Cytotoxicity against human DU145 cells
[4] = test system: HCT-8; assay: Cytotoxicity against human HCT8 cells
[5] = test system: MCF7; assay: Cytotoxicity against human MCF7 cells
[6] = test system: KB; assay: Cytotoxicity against human KB cells
[7] = Cytotoxicity against human KBVIN cells
[8] = test system: A549; assay: Cytotoxicity against human A549 cells up to 20 ug/mL
[9] = test system: PC-3; assay: Cytotoxicity against human PC3 cells up to 20 ug/mL
[10] = test system: DU-145; assay: Cytotoxicity against human DU145 cells up to 20 ug/mL
[11] = test system: HCT-8; assay: Cytotoxicity against human HCT8 cells up to 20 ug/mL
[12] = test system: MCF7; assay: Cytotoxicity against human MCF7 cells up to 20 ug/mL
[13] = test system: KB; assay: Cytotoxicity against human KB cells up to 20 ug/mL
[14] = test system: KBVIN; assay: Cytotoxicity against human KBVIN cells up to 20 ug/mL
[15] = Homo sapiens, A549, read-out: EC50
[16] = Homo sapiens, PC-3, read-out: EC50
[17] = Homo sapiens, DU-145, read-out: EC50
[18] = Homo sapiens, KB, read-out: EC50
[19] = Homo sapiens, KBVIN, read-out: EC50

| Compound | EC50 [4] [µg/mL] | EC50 [6, 18] [µg/mL] | Activity [8] | Activity [9] | Activity [10] | Activity [11] | Activity [12] | Activity [13] | Activity [14] | other results |
| --- | --- | --- | --- | --- | --- | --- | --- | --- | --- | --- |
| COC(=O)C1=C(c2c(C)cc(OC)c(OC)c2OC)C(=O)C(OC)=CC1=O | 5.85 (≈ 15.5 µM) | 4.02 (≈ 10.7 µM) |  |  |  |  |  |  |  | EC50 [1, 15]: 6.12 µg/mL (≈ 16.3 µM); EC50 [2, 16]: 6.09 µg/mL (≈ 16.2 µM); EC50 [3, 17]: 4.74 µg/mL (≈ 12.6 µM); EC50 [5]: 6.4 µg/mL (≈ 17 µM); EC50 [7, 19]: 5.48 µg/mL (≈ 14.6 µM) |
| COc1cc2ccc3c(OC)cc(OC)c(OC)c3c2c(OC)c1OC |  |  | inactive | inactive | inactive | inactive | inactive | inactive | inactive |  |
| COC1=CC(=O)C(C=O)=C(c2c(C)cc(OC)c(OC)c2OC)C1=O |  |  | inactive | inactive | inactive | inactive | inactive | inactive | inactive |  |
| COc1cc(OC)c(OC)c(-c2c(C)cc(OC)c(OC)c2OC)c1C=O |  |  | inactive | inactive | inactive | inactive | inactive | inactive | inactive |  |
| COC1=CC(=O)c2ccc3cc(OC)c(OC)c(OC)c3c2C1=O | 15.2 (≈ 46.4 µM) | 8.08 (≈ 24.6 µM) |  |  |  |  |  |  |  | EC50 [1, 15]: 7.06 µg/mL (≈ 21.5 µM); EC50 [2, 16]: 7.81 µg/mL (≈ 23.8 µM); EC50 [3, 17]: 4.4 µg/mL (≈ 13.4 µM); EC50 [5]: 5.33 µg/mL (≈ 16.2 µM); EC50 [7, 19]: 9.14 µg/mL (≈ 27.8 µM) |
| COC1=CC(=O)c2ccc3cc(OC)c(OC)c(O)c3c2C1=O [CALANQUINONE A] | 0.29 (≈ 0.923 µM) |  |  |  |  |  |  |  |  | EC50 ([1]; a549): 0.31 µg/mL (≈ 0.986 µM); EC50 ([2]; pc-3): 0.75 µg/mL (≈ 2.39 µM); EC50 ([3]; du-145): 0.48 µg/mL (≈ 1.53 µM); EC50 ([6]; kb): 0.3 µg/mL (≈ 0.955 µM); EC50 ([7]; kbvin): 0.24 µg/mL (≈ 0.764 µM) |
| COC1=CC(=O)c2ccc3ccccc3c2C1=O [ANNOQUINONE A] |  | 1.6 (≈ 6.72 µM) |  |  |  |  |  |  |  |  |
